In patent US20230286970A1, “NOVEL OXADIAZOLE-BASED SELECTIVE HDAC6 INHIBITORS” (ITALFARMACO S.P.A., priority 2020, published 2023):

Tests used:
recombinant human HDAC6 = recombinant human HDAC6 (Homo sapiens (Human), UniProt Q9UBN7); experiment: Enzymatic screening, HDAC6 inhibition (fluorogenic FdL_G substrate); assay type: biochemical
In short: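 Enzyme was preincubated with compound (8 doses, triplicate, 1% DMSO) in 25 mM Tris-HCl pH 8, 130 mM NaCl, 0.05% Tween-20, 10% glycerol, with BSA. A FLUOR DE LYS-Green substrate was then added, and fluorescence was read after developer plus 2 μM TSA.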

recombinant human HDAC1 = recombinant human HDAC1 (Homo sapiens (Human), UniProt Q13547); experiment: Enzymatic screening, HDAC1 inhibition (fluorogenic FdL_G substrate); assay type: biochemical
recombinant human HDAC1, sequence (Q13547 whole entry): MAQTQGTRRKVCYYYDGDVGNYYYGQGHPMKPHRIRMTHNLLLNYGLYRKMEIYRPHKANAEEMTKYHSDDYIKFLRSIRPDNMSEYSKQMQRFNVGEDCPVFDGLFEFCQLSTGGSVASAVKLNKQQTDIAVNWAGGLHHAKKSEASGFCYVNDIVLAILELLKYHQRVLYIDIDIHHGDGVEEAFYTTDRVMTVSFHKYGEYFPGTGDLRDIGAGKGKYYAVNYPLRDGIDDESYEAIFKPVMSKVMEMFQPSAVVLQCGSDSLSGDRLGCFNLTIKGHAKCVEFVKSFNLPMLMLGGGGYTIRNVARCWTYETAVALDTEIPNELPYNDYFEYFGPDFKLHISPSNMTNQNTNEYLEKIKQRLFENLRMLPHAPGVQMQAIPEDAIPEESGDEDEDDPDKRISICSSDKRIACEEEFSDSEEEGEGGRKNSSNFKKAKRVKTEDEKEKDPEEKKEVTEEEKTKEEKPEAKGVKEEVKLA
In short: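 Recombinant human HDAC1 inhibition was measured fluorometrically using the FLUOR DE LYS-Green (FdL_G) substrate. Compounds at 8 doses (1% DMSO final) in Tris-HCl pH 8 buffer with NaCl, Tween-20 and glycerol were preincubated in triplicate with enzyme and 1 mg/mL BSA, then given substrate. Developer I plus 2 μM TSA was added, and fluorescence read after 25 minutes in the dark.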

recombinant human HDAC6, sequence (Q9UBN7 whole entry): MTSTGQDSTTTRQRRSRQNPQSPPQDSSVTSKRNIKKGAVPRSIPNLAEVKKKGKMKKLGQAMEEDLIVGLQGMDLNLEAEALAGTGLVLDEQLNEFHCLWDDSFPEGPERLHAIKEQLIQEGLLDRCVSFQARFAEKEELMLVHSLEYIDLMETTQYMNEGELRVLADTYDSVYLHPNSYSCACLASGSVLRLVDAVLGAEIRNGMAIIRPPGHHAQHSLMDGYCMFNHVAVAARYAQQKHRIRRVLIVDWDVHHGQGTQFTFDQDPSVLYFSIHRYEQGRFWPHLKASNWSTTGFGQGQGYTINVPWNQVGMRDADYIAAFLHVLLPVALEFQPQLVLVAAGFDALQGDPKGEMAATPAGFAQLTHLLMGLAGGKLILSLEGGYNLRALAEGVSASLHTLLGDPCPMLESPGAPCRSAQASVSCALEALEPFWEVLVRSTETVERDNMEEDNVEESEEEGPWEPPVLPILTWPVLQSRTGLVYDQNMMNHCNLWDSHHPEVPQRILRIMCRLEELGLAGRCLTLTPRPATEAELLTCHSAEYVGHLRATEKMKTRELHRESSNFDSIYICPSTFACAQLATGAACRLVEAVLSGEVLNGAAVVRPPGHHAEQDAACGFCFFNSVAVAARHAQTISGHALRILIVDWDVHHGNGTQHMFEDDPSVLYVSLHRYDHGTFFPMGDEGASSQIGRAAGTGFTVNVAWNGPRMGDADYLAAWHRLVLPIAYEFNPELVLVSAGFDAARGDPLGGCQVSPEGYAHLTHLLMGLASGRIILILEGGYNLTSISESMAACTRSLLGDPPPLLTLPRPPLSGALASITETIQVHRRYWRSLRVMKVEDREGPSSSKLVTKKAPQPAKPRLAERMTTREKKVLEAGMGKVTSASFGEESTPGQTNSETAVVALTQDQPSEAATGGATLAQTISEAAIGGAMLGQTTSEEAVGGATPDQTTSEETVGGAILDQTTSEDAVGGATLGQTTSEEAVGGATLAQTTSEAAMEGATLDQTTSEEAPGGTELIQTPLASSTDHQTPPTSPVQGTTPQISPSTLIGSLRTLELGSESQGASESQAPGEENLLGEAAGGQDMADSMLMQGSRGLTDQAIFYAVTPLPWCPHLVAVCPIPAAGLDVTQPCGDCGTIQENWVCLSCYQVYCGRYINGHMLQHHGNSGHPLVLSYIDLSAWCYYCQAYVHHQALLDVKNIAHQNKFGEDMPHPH

Row | IC50 (recombinant human HDAC6) [nM] | IC50 (recombinant human HDAC1) [nM] | SMILES
1 | 308 | > 1e+06 | Nc1ccc(-c2cn([C@H](CN3CCCC3)c3ccc(-c4nnc(C(F)F)o4)cc3)nn2)cn1 [compound 313, 5-[1-[(1S)-1-[4-[5-(difluoromethyl)-1,3,4-oxadiazol-2-yl]phenyl]-2-pyrrolidin-1-ylethyl]triazol-4-yl]pyridin-2-amine]
2 | 40 | > 1e+06 | O=C1NCc2ccc(-c3cnn(Cc4ccc(-c5nnc(C(F)F)o5)cn4)c3)cc21 [compound 318, 6-[1-[[5-[5-(difluoromethyl)-1,3,4-oxadiazol-2-yl]pyridin-2-yl]methyl]pyrazol-4-yl]-2,3-dihydroisoindol-1-one]
3 | 70 | > 200000 | O=C(Nc1cccc(-c2nnn(Cc3ccc(-c4nnc(C(F)F)o4)cc3)n2)c1)c1ccccc1 [compound 156, N-(3-(2-(4-(5-(difluoromethyl)-1,3,4-oxadiazol-2-yl)benzyl)-2H-tetrazol-5-yl)phenyl)benzamide]
4 | 81 | > 200000 | CCS(=O)(=O)N1CCN(Cc2ccc(-c3cn(Cc4c(F)cc(-c5nnc(C(F)F)o5)cc4F)nn3)cc2)CC1 [compound 169, 2-(difluoromethyl)-5-(4-((4-(4-((4-(ethylsulfonyl)piperazin-1-yl)methyl)phenyl)-1H-1,2,3-triazol-1-yl)methyl)-3,5-difluorophenyl)-1,3,4-oxadiazole]
5 | 20 | 74900 | NCc1ccc(-c2nnn(Cc3ccc(-c4nnc(C(F)F)o4)cc3)n2)cc1 [compound 43, (4-(2-(4-(5-(difluoromethyl)-1,3,4-oxadiazol-2-yl)benzyl)-2H-tetrazol-5-yl)phenyl)methanamine]
6 | 35 | > 200000 | CC(C)(C)OC(=O)N1CCC2(C1)C(=O)Nc1ccc(-c3cn(Cc4ccc(-c5nnc(C(F)F)o5)cn4)nn3)cc12 (single isomer, unassigned) [compound 266, tert-butyl 5-[1-({5-[5-(difluoromethyl)-1,3,4-oxadiazol-2-yl]pyridin-2-yl}methyl)-1H-1,2,3-triazol-4-yl]-2-oxo-1,2-dihydrospiro[indole-3,3′-pyrrolidine]-1′-carboxylate]
7 | 37 | 570000 | Fc1cc(Cn2nnc(-c3cccc(-c4nc5c([nH]4)CNCC5)c3)n2)ccc1-c1nnc(C(F)F)o1 [compound 364, 2-(difluoromethyl)-5-[2-fluoro-4-[[5-[3-(4,5,6,7-tetrahydro-3H-imidazo[4,5-c]pyridin-2-yl)phenyl]tetrazol-2-yl]methyl]phenyl]-1,3,4-oxadiazole]
8 | 34 | > 1e+06 | Nc1ncnc2cc(-c3cn(Cc4ccc(-c5nnc(C(F)F)o5)cn4)nn3)ccc12 [compound 317, 7-[1-[[5-[5-(difluoromethyl)-1,3,4-oxadiazol-2-yl]pyridin-2-yl]methyl]triazol-4-yl]quinazolin-4-amine]
9 | 82 | > 200000 | C[C@@H](c1ccc(-c2nnc(C(F)F)o2)cn1)n1cc(-c2ccc(N)nc2)nn1 [Compd. 171, (S)-5-(1-(1-(5-(5-(difluoromethyl)-1,3,4-oxadiazol-2-yl)pyridin-2-yl)ethyl)-1H-1,2,3-triazol-4-yl)pyridin-2-amine]
10 | 76 | 45100 | Cn1c(=N)n(C)c2cc(-c3cn(Cc4ccc(-c5nnc(C(F)F)o5)cc4)nn3)ccc21 [compound 162, 5-(1-(4-(5-(difluoromethyl)-1,3,4-oxadiazol-2-yl)benzyl)-1H-1,2,3-triazol-4-yl)-1,3-dimethyl-1,3-dihydro-2H-benzo[d]imidazol-2-imine]
11 | 37 | 65000 | Nc1cccc(-c2cn(Cc3c(F)cc(-c4nnc(C(F)F)o4)cc3F)nn2)c1 [compound 297, 3-(1-(4-(5-(difluoromethyl)-1,3,4-oxadiazol-2-yl)-2,6-difluorobenzyl)-1H-1,2,3-triazol-4-yl)aniline]
12 | 169 | > 200000 | O=c1[nH]c2cc(-c3nnn(Cc4ccc(-c5nnc(C(F)F)o5)cc4)n3)ccc2o1 [compound 225, 5-(2-(4-(5-(difluoromethyl)-1,3,4-oxadiazol-2-yl)benzyl)-2H-tetrazol-5-yl)benzo[d]oxazol-2 (3H)-one]
13 | 28 | > 1e+06 | Cn1c(N)nc2cc(-c3cnn(Cc4ccc(-c5nnc(C(F)F)o5)cn4)c3)ccc21 [compound 320, 5-[1-[[5-[5-(difluoromethyl)-1,3,4-oxadiazol-2-yl]pyridin-2-yl]methyl]pyrazol-4-yl]-1-methylbenzimidazol-2-amine]
14 | 45 | > 200000 | Nc1ccc(-c2cn(Cc3ccc(-c4nnc(C(F)F)o4)cc3)nn2)cc1 [compound 121, 4-(1-(4-(5-(difluoromethyl)-1,3,4-oxadiazol-2-yl)benzyl)-1H-1,2,3-triazol-4-yl)aniline]
15 | 67 | > 200000 | COc1ncc(NCc2ccc(-c3cn(Cc4c(F)cc(-c5nnc(C(F)F)o5)cc4F)nn3)cc2)cc1C(N)=O [Compd. 154, 5-((4-(1-(4-(5-(difluoromethyl)-1,3,4-oxadiazol-2-yl)-2,6-difluorobenzyl)-1H-1,2,3-triazol-4-yl)benzyl)amino)-2-methoxynicotinamide]
16 | 19 | > 1e+06 | FCc1nnc(-c2ccc(Cc3nc(-c4ccc(NC5=NCCN5)cc4)no3)cc2)o1 [compound 380]
17 | 321 | > 1e+06 | NC(=O)c1cccc(-c2cnn(Cc3ccc(-c4nnc(C(F)F)o4)cc3)c2)c1 [compound 333, 3-[1-[[4-[5-(difluoromethyl)-1,3,4-oxadiazol-2-yl]phenyl]methyl]pyrazol-4-yl]benzamide]
18 | 90 | > 200000 | CN(Cc1ccncc1)Cc1ccc(-c2cn(Cc3c(F)cc(-c4nnc(C(F)F)o4)cc3F)nn2)cc1 [compound 179, N-(4-(1-(4-(5-(difluoromethyl)-1,3,4-oxadiazol-2-yl)-2,6-difluorobenzyl)-1H-1,2,3-triazol-4-yl)benzyl)-N-methyl-1-(pyridin-4-yl)methanamine]
19 | 115 | > 200000 | CN(Cc1ccncc1)Cc1ccc(-c2nnn(Cc3c(F)cc(-c4nnc(C(F)F)o4)cc3F)n2)cc1 [compound 201, N-(4-(2-(4-(5-(difluoromethyl)-1,3,4-oxadiazol-2-yl)-2,6-difluorobenzyl)-2H-tetrazol-5-yl)benzyl)-N-methyl-1-(pyridin-4-yl)methanamine]
20 | 132 | > 200000 | O=C1CCc2c1cccc2-c1nnn(Cc2ccc(-c3nnc(C(F)F)o3)cc2)n1 [compound 208, 4-(2-(4-(5-(difluoromethyl)-1,3,4-oxadiazol-2-yl)benzyl)-2H-tetrazol-5-yl)-2,3-dihydro-1H-inden-1-one]
21 | 78 | > 200000 | CC(c1ccc(-c2nnc(C(F)F)o2)cc1F)n1cc(-c2cccc(NC(=O)N3CCOCC3)c2)nn1 (stereo not shown) [compound 165, N-(3-(1-(1-(4-(5-(difluoromethyl)-1,3,4-oxadiazol-2-yl)-2-fluorophenyl)ethyl)-1H-1,2,3-triazol-4-yl)phenyl)morpholine-4-carboxamide]
22 | 178 | 1e+06 | Nc1cc2cc(-c3cn(Cc4ccc(-c5nnc(C(F)F)o5)cc4Cl)nn3)ccc2cn1 [compound 404, 6-(1-(2-chloro-4-(5-(difluoromethyl)-1,3,4-oxadiazol-2-yl)benzyl)-1H-1,2,3-triazol-4-yl)isoquinolin-3-amine]
23 | 138 | > 200000 | Cn1c(=O)[nH]c2cc(-c3nnn(Cc4ccc(-c5nnc(C(F)F)o5)cc4)n3)ccc21 [compound 210, 5-(2-(4-(5-(difluoromethyl)-1,3,4-oxadiazol-2-yl)benzyl)-2H-tetrazol-5-yl)-1-methyl-1,3-dihydro-2H-benzo[d]imidazol-2-one]
24 | 497 | 1e+06 | CNc1ncc2cc(-c3cn(Cc4ccc(-c5nnc(C(F)F)o5)c(F)c4)nn3)ccc2n1 [compound 393, 6-[1-({4-[5-(difluoromethyl)-1,3,4-oxadiazol-2-yl]-3-fluorophenyl}methyl)-1H-1,2,3-triazol-4-yl]-N-methylquinazolin-2-amine]
25 | 98 | > 1e+06 | Cn1c(N)nc2cc(-c3cnn(Cc4ccc(-c5nnc(C(F)F)o5)cc4)c3)ccc21 [compound 321, 5-[1-[[4-[5-(difluoromethyl)-1,3,4-oxadiazol-2-yl]phenyl]methyl]pyrazol-4-yl]-1-methylbenzimidazol-2-amine]
26 | 43 | > 200000 | CCNc1cccc(-c2cn(Cc3c(F)cc(-c4nnc(C(F)F)o4)cc3F)nn2)c1 [compound 114, 3-(1-(4-(5-(difluoromethyl)-1,3,4-oxadiazol-2-yl)-2,6-difluorobenzyl)-1H-1,2,3-triazol-4-yl)-N-ethylaniline]
27 | 27 | > 1e+06 | Nc1nc2ccc(-c3cn(Cc4ccc(-c5nnc(C(F)F)o5)c(F)c4)nn3)cc2s1 [compound 347, 6-[1-[[4-[5-(difluoromethyl)-1,3,4-oxadiazol-2-yl]-3-fluorophenyl]methyl]triazol-4-yl]-1,3-benzothiazol-2-amine]
28 | 200 | > 200000 | CN(C)c1ccc(-c2cn(Cc3ccc(-c4nnc(C(F)F)o4)cc3)nn2)cc1 [compound 281, 4-(1-(4-(5-(difluoromethyl)-1,3,4-oxadiazol-2-yl)benzyl)-1H-1,2,3-triazol-4-yl)-N,N-dimethylaniline]

Row | SMILES | IC50 (recombinant human HDAC6) [nM] | IC50 (recombinant human HDAC1) [nM]
29 | O=C1Nc2cc(-c3cn(Cc4ccc(-c5nnc(C(F)F)o5)cc4)nn3)ccc2C12CCNCC2 [compound 161, 6-(1-(4-(5-(difluoromethyl)-1,3,4-oxadiazol-2-yl)benzyl)-1H-1,2,3-triazol-4-yl)spiro[indoline-3,4′-piperidin]-2-one] | 75 | > 200000
